Results taken from patent US20260297070A1, “CYCLIC [COMPOUND LEFT OUT] WRN INHIBITORS” (Nimbus Wadjet, Inc., priority 2023, published 2026).

target: T1, human Werner helicase (WRN-BV08, Uniprot Q14191, amino acids 517-1235 with L1074F point mutation) (Homo sapiens, UniProt Q14191, L1074F); test: WRN (BV08) ADP-Glo Assay; format: biochemical; details: 0.15 nM WRN, 5 μM ATP, 0.1 nM DNA duplex, 15 min preincubation, 60 min at 25° C., pH 7.5, 1% DMSO; read-out: ADP-Glo_hWRN_IC50
T1 construct: Uniprot Q14191, amino acids 517-1235 with L1074F point mutation; TEV-cleavable 8×His (C, cleaved yes); made in house; host or cells: Sf9 insect cells (baculovirus)
Method in brief: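 Untagged WRN (Sf9-expressed, TEV-cleaved) at 0.15 nM was preincubated 15 min at 25 °C with compound, then reacted 60 min at 25 °C with 5 μM ATP and 0.1 nM DNA duplex in Bicine pH 7.5, 1 mM MgCl2. ADP-Glo luminescence gave % inhibition; IC50 by four-parameter fit.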

T1 sequence (Q14191 with tags, fused parts or gaps L1074F limits assumed): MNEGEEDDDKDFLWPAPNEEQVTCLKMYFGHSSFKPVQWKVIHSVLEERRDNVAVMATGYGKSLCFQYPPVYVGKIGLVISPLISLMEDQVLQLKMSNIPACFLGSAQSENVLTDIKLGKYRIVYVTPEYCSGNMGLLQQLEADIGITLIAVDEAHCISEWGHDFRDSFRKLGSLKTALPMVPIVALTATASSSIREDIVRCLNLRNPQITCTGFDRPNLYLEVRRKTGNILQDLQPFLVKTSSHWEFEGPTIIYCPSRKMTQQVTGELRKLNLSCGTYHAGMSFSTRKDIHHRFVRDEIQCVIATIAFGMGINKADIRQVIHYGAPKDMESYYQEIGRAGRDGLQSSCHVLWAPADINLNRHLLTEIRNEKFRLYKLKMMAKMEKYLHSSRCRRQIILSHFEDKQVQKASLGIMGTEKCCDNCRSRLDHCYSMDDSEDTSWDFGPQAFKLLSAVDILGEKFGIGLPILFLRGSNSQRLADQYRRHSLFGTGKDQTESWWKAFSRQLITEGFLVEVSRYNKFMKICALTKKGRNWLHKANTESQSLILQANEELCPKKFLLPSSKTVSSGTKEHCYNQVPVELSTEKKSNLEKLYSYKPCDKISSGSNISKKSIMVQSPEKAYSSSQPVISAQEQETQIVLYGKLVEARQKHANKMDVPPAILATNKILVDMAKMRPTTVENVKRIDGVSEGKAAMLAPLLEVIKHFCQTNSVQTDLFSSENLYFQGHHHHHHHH

SMILES	IC50 [µM]
Cn1nc(-c2ccccc2)cc1CC(=O)N(Cc1ccncc1)C1C=CS(=O)(=O)C1 (stereo not drawn) [I-609, N-(1,1-dioxo-2,3-dihydro-1lambda6-thiophen-3-yl)-2-(1-methyl-3-phenyl-1H-pyrazol-5-yl)-N-[(pyridin-4-yl)methyl]acetamide]	> 50
Cc1nc2cc(CC(=O)N(Cc3ccncc3)C3C=CS(=O)(=O)C3)ccc2o1 (stereo not drawn) [I-610, N-(1,1-dioxo-2,3-dihydro-1lambda6-thiophen-3-yl)-2-(2-methyl-1,3-benzoxazol-5-yl)-N-[(pyridin-4-yl)methyl]acetamide]	> 50
O=C([C@H]1C[C@@H](c2ccccc2)C1)N(Cc1ccncc1)C1C=CS(=O)(=O)C1 (stereo partly drawn) [I-611, (1s,3s)-N-(1,1-dioxo-2,3-dihydro-1lambda6-thiophen-3-yl)-3-phenyl-N-[(pyridin-4-yl)methyl]cyclobutane-1-carboxamide]	> 50
Cc1nc(CN(C(=O)Cc2ccc(S(F)(F)(F)(F)F)cc2)C2C=CS(=O)(=O)C2)sc1C (stereo not drawn) [I-612, N-[(4,5-dimethyl-1,3-thiazol-2-yl)methyl]-N-(1,1-dioxo-2,3-dihydro-1lambda6-thiophen-3-yl)-2-[4-(pentafluoro-lambda6-sulfanyl)phenyl]acetamide]	< 0.5
O=C(CC1COc2ccccc2C1)N(Cc1ccncc1)C1C=CS(=O)(=O)C1 (stereo not drawn) [I-613, 2-(3,4-dihydro-2H-1-benzopyran-3-yl)-N-(1,1-dioxo-2,3-dihydro-1lambda6-thiophen-3-yl)-N-[(pyridin-4-yl)methyl]acetamide]	> 50
O=C(C1CC(c2ccc(F)cc2)C1)N(Cc1ccncc1)C1C=CS(=O)(=O)C1 (stereo not drawn) [I-614, N-(1,1-dioxo-2,3-dihydro-1lambda6-thiophen-3-yl)-3-(4-fluorophenyl)-N-[(pyridin-4-yl)methyl]cyclobutane-1-carboxamide]	> 50
O=C(Cn1nc(C(F)F)c2c1CCCC2)N(Cc1ccncc1)C1C=CS(=O)(=O)C1 (stereo not drawn) [I-616, 2-[3-(difluoromethyl)-4,5,6,7-tetrahydro-1H-indazol-1-yl]-N-(1,1-dioxo-2,3-dihydro-1lambda6-thiophen-3-yl)-N-[(pyridin-4-yl)methyl]acetamide]	> 50
O=C([C@H]1[C@@H]2CC(F)(F)C[C@@H]21)N(Cc1ccncc1)C1C=CS(=O)(=O)C1 (stereo partly drawn) [I-617, (1R,5S,6R)-N-(1,1-dioxo-2,3-dihydro-1lambda6-thiophen-3-yl)-3,3-difluoro-N-[(pyridin-4-yl)methyl]bicyclo[3.1.0]hexane-6-carboxamide]	> 50
O=C(C1C2CN(CC(F)(F)F)CC21)N(Cc1ccncc1)C1C=CS(=O)(=O)C1 (stereo not drawn) [I-618, N-(1,1-dioxo-2,3-dihydro-1lambda6-thiophen-3-yl)-N-[(pyridin-4-yl)methyl]-3-(2,2,2-trifluoroethyl)-3-azabicyclo[3.1.0]hexane-6-carboxamide]	> 50
O=C(C1C2CCC1C2)N(Cc1ccncc1)C1C=CS(=O)(=O)C1 (stereo not drawn) [I-619, N-(1,1-dioxo-2,3-dihydro-1lambda6-thiophen-3-yl)-N-[(pyridin-4-yl)methyl]bicyclo[2.1.1]hexane-5-carboxamide]	> 50
CC(C(=O)N(Cc1ccncc1)C1C=CS(=O)(=O)C1)n1cc2ccccc2n1 (stereo not drawn) [I-620, N-(1,1-dioxo-2,3-dihydro-1lambda6-thiophen-3-yl)-2-(2H-indazol-2-yl)-N-[(pyridin-4-yl)methyl]propanamide]	> 50
O=C(C1CC(c2ccncc2)=NO1)N(Cc1ccncc1)C1C=CS(=O)(=O)C1 (stereo not drawn) [I-621, N-(1,1-dioxo-2,3-dihydro-1lambda6-thiophen-3-yl)-3-(pyridin-4-yl)-N-[(pyridin-4-yl)methyl]-4,5-dihydro-1,2-oxazole-5-carboxamide]	> 50
O=C(C1CCn2cc(C(F)(F)F)nc2C1)N(Cc1ccncc1)C1C=CS(=O)(=O)C1 (stereo not drawn) [I-622]	> 50
CC(C)(O)c1ccc(CN(C(=O)Cc2ccc(S(F)(F)(F)(F)F)cc2)C2C=CS(=O)(=O)C2)cc1 (stereo not drawn) [I-623, N-(1,1-dioxo-2,3-dihydro-1lambda6-thiophen-3-yl)-N-{[4-(2-hydroxypropan-2-yl)phenyl]methyl}-2-[4-(pentafluoro-lambda6-sulfanyl)phenyl]acetamide]	0.5 to 5
O=C(Cc1ccc(S(F)(F)(F)(F)F)cc1)N(Cc1cc(C2CC2)no1)C1C=CS(=O)(=O)C1 (stereo not drawn) [I-624, N-[(3-cyclopropyl-1,2-oxazol-5-yl)methyl]-N-(1,1-dioxo-2,3-dihydro-1lambda6-thiophen-3-yl)-2-[4-(pentafluoro-lambda6-sulfanyl)phenyl]acetamide]	0.5 to 5
CC(F)(F)c1csc(CN(C(=O)Cc2ccc(S(F)(F)(F)(F)F)cc2)C2C=CS(=O)(=O)C2)n1 (stereo not drawn) [I-625, N-{[4-(1,1-difluoroethyl)-1,3-thiazol-2-yl]methyl}-N-(1,1-dioxo-2,3-dihydro-1lambda6-thiophen-3-yl)-2-[4-(pentafluoro-lambda6-sulfanyl)phenyl]acetamide]	< 0.5
O=C(Cc1ccc(S(F)(F)(F)(F)F)cc1)N(Cc1nc(-c2nn[nH]n2)cs1)C1C=CS(=O)(=O)C1 (stereo not drawn) [I-626, N-(1,1-dioxo-2,3-dihydro-1lambda6-thiophen-3-yl)-2-[4-(pentafluoro-lambda6-sulfanyl)phenyl]-N-{[4-(2H-1,2,3,4-tetrazol-5-yl)-1,3-thiazol-2-yl]methyl}acetamide]	< 0.5
O=C(Cc1cnc(C(F)(F)F)cn1)N(Cc1ccncc1)C1C=CS(=O)(=O)C1 (stereo not drawn) [I-627, N-(1,1-dioxo-2,3-dihydro-1lambda6-thiophen-3-yl)-N-[(pyridin-4-yl)methyl]-2-[5-(trifluoromethyl)pyrazin-2-yl]acetamide]	> 50
CCc1csc(CN(C(=O)Cc2ccc(S(F)(F)(F)(F)F)cc2)C2C=CS(=O)(=O)C2)n1 (stereo not drawn) [I-628, N-(1,1-dioxo-2,3-dihydro-1lambda6-thiophen-3-yl)-N-[(4-ethyl-1,3-thiazol-2-yl)methyl]-2-[4-(pentafluoro-lambda6-sulfanyl)phenyl]acetamide]	< 0.5
O=C(Cc1ccc(S(F)(F)(F)(F)F)cc1)N(CCc1nc(C2CC2)cs1)C1C=CS(=O)(=O)C1 (stereo not drawn) [I-629, N-[2-(4-cyclopropyl-1,3-thiazol-2-yl)ethyl]-N-(1,1-dioxo-2,3-dihydro-1lambda6-thiophen-3-yl)-2-[4-(pentafluoro-lambda6-sulfanyl)phenyl]acetamide]	0.5 to 5
O=C(Cc1ccc2c(c1)CCOC2)N(Cc1ccncc1)C1C=CS(=O)(=O)C1 (stereo not drawn) [I-630, 2-(3,4-dihydro-1H-2-benzopyran-6-yl)-N-(1,1-dioxo-2,3-dihydro-1lambda6-thiophen-3-yl)-N-[(pyridin-4-yl)methyl]acetamide]	> 50
COc1cc(CC(=O)N(Cc2ccncc2)C2C=CS(=O)(=O)C2)cc(OC)c1Br (stereo not drawn) [I-631, 2-(4-bromo-3,5-dimethoxyphenyl)-N-(1,1-dioxo-2,3-dihydro-1lambda6-thiophen-3-yl)-N-[(pyridin-4-yl)methyl]acetamide]	> 50
O=C(Cc1ccc(S(F)(F)(F)(F)F)cc1)N(Cc1ccnc(C2(O)COC2)c1)C1C=CS(=O)(=O)C1 (stereo not drawn) [I-633, N-(1,1-dioxo-2,3-dihydro-1lambda6-thiophen-3-yl)-N-{[2-(3-hydroxyoxetan-3-yl)pyridin-4-yl]methyl}-2-[4-(pentafluoro-lambda6-sulfanyl)phenyl]acetamide]	10 to 50
COc1nc(CN(C(=O)Cc2ccc(S(F)(F)(F)(F)F)cc2)C2C=CS(=O)(=O)C2)cc(N(C)C)n1 (stereo not drawn) [I-634, N-{[6-(dimethylamino)-2-methoxypyrimidin-4-yl]methyl}-N-(1,1-dioxo-2,3-dihydro-1lambda6-thiophen-3-yl)-2-[4-(pentafluoro-lambda6-sulfanyl)phenyl]acetamide]	5 to 10
COc1cc(CN(C(=O)Cc2ccc(S(F)(F)(F)(F)F)cc2)C2C=CS(=O)(=O)C2)nc(N(C)C)n1 (stereo not drawn) [I-635, N-{[2-(dimethylamino)-6-methoxypyrimidin-4-yl]methyl}-N-(1,1-dioxo-2,3-dihydro-1lambda6-thiophen-3-yl)-2-[4-(pentafluoro-lambda6-sulfanyl)phenyl]acetamide]	0.5 to 5
CC(C)(O)c1csc(CN(C(=O)Cc2ccc(S(F)(F)(F)(F)F)cc2)C2C=CS(=O)(=O)C2)n1 (stereo not drawn) [I-637, N-(1,1-dioxo-2,3-dihydro-1lambda6-thiophen-3-yl)-N-{[4-(2-hydroxypropan-2-yl)-1,3-thiazol-2-yl]methyl}-2-[4-(pentafluoro-lambda6-sulfanyl)phenyl]acetamide]	10 to 50
O=C(Cc1ccc(-c2ccc(F)cc2)cc1)N(Cc1ccccc1)C1C=C(CO)S(=O)(=O)C1 (stereo not drawn) [I-640, N-benzyl-2-{4′-fluoro-[1,1′-biphenyl]-4-yl}-N-[5-(hydroxymethyl)-1,1-dioxo-2,3-dihydro-1lambda6-thiophen-3-yl]acetamide]	> 50
O=C(Cc1ccc2c(c1)COCC2)N(Cc1ccncc1)C1C=CS(=O)(=O)C1 (stereo not drawn) [I-642, 2-(3,4-dihydro-1H-2-benzopyran-7-yl)-N-(1,1-dioxo-2,3-dihydro-1lambda6-thiophen-3-yl)-N-[(pyridin-4-yl)methyl]acetamide]	> 50
O=C(Cc1ccc2c(c1)CCCC2)N(Cc1ccncc1)C1C=CS(=O)(=O)C1 (stereo not drawn) [I-643, N-(1,1-dioxo-2,3-dihydro-1lambda6-thiophen-3-yl)-N-[(pyridin-4-yl)methyl]-2-(5,6,7,8-tetrahydronaphthalen-2-yl)acetamide]	10 to 50

same assay, conditions: ADP-Glo_hWRN_IC50, 0.15 nM WRN, 5 μM ATP, 0.1 nM DNA duplex, 15 min preincubation, 60 min at 25° C., pH 7.5, 1% DMSO

SMILES	IC50 [µM]
O=C(c1cc(-c2ccc(F)cc2)ns1)N(Cc1ccncc1)C1C=CS(=O)(=O)C1 (stereo not drawn) [I-615, N-(1,1-dioxo-2,3-dihydro-1lambda6-thiophen-3-yl)-3-(4-fluorophenyl)-N-[(pyridin-4-yl)methyl]-1,2-thiazole-5-carboxamide]	> 50
